According to patent US11986532B2 (Arvinas Operations, Inc., priority 2021, dated 2024):

Target: T1, BCL6 (Homo sapiens, UniProt P41182)
T1 construct: endogenous in cells; host or cells: T47D breast cancer epithelial cells
Assay: Immunofluorescence protocol for high content imaging of BCL6 (degradation) in T47D cells, 3 days compound treatment
Type: cell-based
Settings: T47D cells, 3 days compound treatment; for DC50: read-out: Mean DC50 (nM)* category; for Dmax: read-out: Mean Dmax (%)** category
Method in brief: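 High content immunofluorescence imaging (10×, 4 fields/well) of BCL6 using rabbit primary antibody, Alexa-488 secondary, cell mask and Hoechst nuclear stain after PFA fixation. Before staining, T47D cells (7K/well) were exposed for 3 days at 37° C to 3-fold serial dilutions of compound, top final concentration 0.1 or 1 μM.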

SMILES | DC50 [nM] | Dmax [%]
CNC(=O)COc1cc2cc(Nc3nc(N4CCC(OC5CCC6(CC5)CN(c5cc7c(cc5F)C(=O)N(C5CCC(=O)NC5=O)C7)C6)CC4)ncc3Cl)ccc2n(C(C)C)c1=O (centres unmarked) [Compound 123, 2-{[6-({5-chloro-2-[4-({2-[2-(2,6-dioxopiperidin-3-yl)-6-fluoro-1-oxo-2,3-dihydro-1H-isoindol-5-yl]-2-azaspiro [3.5]nonan-7-yl}oxy)piperidin-1-yl]pyrimidin-4-yl}amino)-2-oxo-1-(propan-2-yl)-1,2-dihydroquinolin-3-yl]oxy}-N-methylacetamide] | < 10 | ≥ 70
CNC(=O)COc1cc2cc(Nc3nc(N4CCC(CN5CC6(CCN(c7cccc8c7C(=O)N(C7CCC(=O)NC7=O)C8=O)CC6(F)F)C5)CC4)ncc3Cl)ccc2n(C(C)C)c1=O (centres unmarked) [Compound 124, 2-{[6-({5-chloro-2-[4-({7-[2-(2,6-dioxopiperidin-3-yl)-1,3-dioxo-2,3-dihydro-1H-isoindol-4-yl]-5,5-difluoro-2,7-diazaspiro[3.5]nonan-2-yl}methyl)piperidin-1-yl]pyrimidin-4-yl}amino)-2-oxo-1-(propan-2-yl)-1,2-dihydroquinolin-3-yl]oxy}-N-methylacetamide] | < 10 | 50 to 70
CNC(=O)COc1cc2cc(Nc3nc(N4CCC(CN5CC6(CCN(c7cccc8c7CN(C7CCC(=O)NC7=O)C8=O)CC6(F)F)C5)CC4)ncc3Cl)ccc2n(C(C)C)c1=O (centres unmarked) [Compound 125, 2-{[6-({5-chloro-2-[4-({7-[2-(2,6-dioxopiperidin-3-yl)-1-oxo-2,3-dihydro-1H-isoindol-4-yl]-5,5-difluoro-2,7-diazaspiro[3.5]nonan-2-yl}methyl)piperidin-1-yl]pyrimidin-4-yl}amino)-2-oxo-1-(propan-2-yl)-1,2-dihydroquinolin-3-yl]oxy}-N-methylacetamide] | < 10 | 50 to 70
CNC(=O)COc1cc2cc(Nc3nc(N4CCC(CN5CCC6(CN(c7ccc8c(c7)C(=O)N(C7CCC(=O)NC7=O)C8=O)C6)C(F)(F)C5)CC4)ncc3Cl)ccc2n(CCOC)c1=O (centres unmarked) [Compound 126, 2-{[6-({5-chloro-2-[4-({2-[2-(2,6-dioxopiperidin-3-yl)-1,3-dioxo-2,3-dihydro-1H-isoindol-5-yl]-5,5-difluoro-2,7-diazaspiro[3.5]nonan-7-yl}methyl)piperidin-1-yl]pyrimidin-4-yl}amino)-1-(2-methoxyethyl)-2-oxo-1,2-dihydroquinolin-3-yl]oxy}-N-methylacetamide] | < 10 | < 50
CNC(=O)COc1cc2cc(Nc3nc(N4CCC(CN5CCC6(CN(c7ccc8c(c7)C(=O)N(C7CCC(=O)NC7=O)C8=O)C6)C(F)(F)C5)CC4)ncc3Cl)ccc2n(C)c1=O (centres unmarked) [Compound 127, 2-{[6-({5-chloro-2-[4-({2-[2-(2,6-dioxopiperidin-3-yl)-1,3-dioxo-2,3-dihydro-1H-isoindol-5-yl]-5,5-difluoro-2,7-diazaspiro[3.5]nonan-7-yl}methyl)piperidin-1-yl]pyrimidin-4-yl}amino)-1-methyl-2-oxo-1,2-dihydroquinolin-3-yl]oxy}-N-methylacetamide] | < 10 | < 50
CNC(=O)COc1cc2cc(Nc3nc(N4CCC(O[C@H]5C[C@H](N6CCC(c7cc(F)c8c(c7OC)CN(C7CCC(=O)NC7=O)C8=O)CC6)C5)CC4)ncc3Cl)ccc2n(C(C)C)c1=O (some centres unmarked) [Compound 128, 2-({6-[(5-chloro-2-{4-[(1r,3r)-3-{4-[2-(2,6-dioxopiperidin-3-yl)-7-fluoro-4-methoxy-1-oxo-2,3-dihydro-1H-isoindol-5-yl]piperidin-1-yl}cyclobutoxy]piperidin-1-yl}pyrimidin-4-yl)amino]-2-oxo-1-(propan-2-yl)-1,2-dihydroquinolin-3-yl}oxy)-N-methylacetamide] | < 10 | 50 to 70
CNC(=O)COc1cc2cc(Nc3nc(N4CCC5(CCN(CC6(F)CCN(c7ccc(F)c8c7CN(C7CCC(=O)NC7=O)C8=O)CC6)CC5)CC4)ncc3Cl)ccc2n(C(C)C)c1=O (centres unmarked) [Compound 129, 2-{[6-({5-chloro-2-[9-({1-[2-(2,6-dioxopiperidin-3-yl)-7-fluoro-1-oxo-2,3-dihydro-1H-isoindol-4-yl]-4-fluoropiperidin-4-yl}methyl)-3,9-diazaspiro[5.5]undecan-3-yl]pyrimidin-4-yl}amino)-2-oxo-1-(propan-2-yl)-1,2-dihydroquinolin-3-yl]oxy}-N-methylacetamide] | < 10 | 50 to 70
CNC(=O)COc1cc2cc(Nc3nc(N4CCC5(CCN(CC6(F)CCN(c7ccc(F)c8c7C(=O)N(C7CCC(=O)NC7=O)C8)CC6)CC5)CC4)ncc3Cl)ccc2n(C(C)C)c1=O (centres unmarked) [Compound 130, 2-{[6-({5-chloro-2-[9-({1-[2-(2,6-dioxopiperidin-3-yl)-7-fluoro-3-oxo-2,3-dihydro-1H-isoindol-4-yl]-4-fluoropiperidin-4-yl}methyl)-3,9-diazaspiro[5.5]undecan-3-yl]pyrimidin-4-yl}amino)-2-oxo-1-(propan-2-yl)-1,2-dihydroquinolin-3-yl]oxy}-N-methylacetamide] | ≥ 100 | ≥ 70
CNC(=O)COc1cc2cc(Nc3nc(N4CCC(CN5CCC6(CC5)CN(c5ccc7c(c5)C(=O)N(C5CCC(=O)NC5=O)C7=O)C6(C)C)CC4)ncc3Cl)ccc2n(C(C)C)c1=O (centres unmarked) [Compound 133, 2-{[6-({5-chloro-2-[4-({2-[2-(2,6-dioxopiperidin-3-yl)-1,3-dioxo-2,3-dihydro-1H-isoindol-5-yl]-1,1-dimethyl-2,7-diazaspiro[3.5]nonan-7-yl}methyl)piperidin-1-yl]pyrimidin-4-yl}amino)-2-oxo-1-(propan-2-yl)-1,2-dihydroquinolin-3-yl]oxy}-N-methylacetamide] | < 10 | 50 to 70
CNC(=O)COc1cc2cc(Nc3nc(N4CCC(CN5CCC6(CN(c7ccc8c(c7)C(=O)N(C7CCC(=O)NC7=O)C8=O)C6)C(F)C5)CC4)ncc3Cl)ccc2n(C(C)C)c1=O (centres unmarked) [Compound 134, 2-{[6-({5-chloro-2-[4-({2-[2-(2,6-dioxopiperidin-3-yl)-1,3-dioxo-2,3-dihydro-1H-isoindol-5-yl]-5-fluoro-2,7-diazaspiro[3.5]nonan-7-yl}methyl)piperidin-1-yl]pyrimidin-4-yl}amino)-2-oxo-1-(propan-2-yl)-1,2-dihydroquinolin-3-yl]oxy}-N-methylacetamide] | < 10 | < 50
CNC(=O)COc1cc2cc(Nc3nc(N4CCC(CN5CC6(CCN(c7ccc8c(c7)C(=O)N(C7CCC(=O)NC7=O)C8=O)CC6(F)F)C5)CC4)ncc3Cl)ccc2n(C(C)C)c1=O (centres unmarked) [Compound 135, 2-{[6-({5-chloro-2-[4-({7-[2-(2,6-dioxopiperidin-3-yl)-1,3-dioxo-2,3-dihydro-1H-isoindol-5-yl]-5,5-difluoro-2,7-diazaspiro[3.5]nonan-2-yl}methyl)piperidin-1-yl]pyrimidin-4-yl}amino)-2-oxo-1-(propan-2-yl)-1,2-dihydroquinolin-3-yl]oxy}-N-methylacetamide] | < 10 | 50 to 70
CNC(=O)COc1cc2cc(Nc3nc(N4CCC(CN5CC6(CCN(c7ccc8c(c7)CN(C7CCC(=O)NC7=O)C8=O)CC6(F)F)C5)CC4)ncc3Cl)ccc2n(C(C)C)c1=O (centres unmarked) [Compound 136, 2-{[6-({5-chloro-2-[4-({7-[2-(2,6-dioxopiperidin-3-yl)-1-oxo-2,3-dihydro-1H-isoindol-5-yl]-5,5-difluoro-2,7-diazaspiro[3.5]nonan-2-yl}methyl)piperidin-1-yl]pyrimidin-4-yl}amino)-2-oxo-1-(propan-2-yl)-1,2-dihydroquinolin-3-yl]oxy}-N-methylacetamide] | < 10 | 50 to 70
CNC(=O)COc1cc2cc(Nc3nc(N4CCC(O[C@H]5C[C@H](N6CCC(c7ccc8c(c7)C(=O)N(C7CCC(=O)NC7=O)C8=O)C(F)(F)C6)C5)CC4)ncc3Cl)ccc2n(C(C)C)c1=O (some centres unmarked) [Compound 137, 2-({6-[(5-chloro-2-{4-[(1r,3r)-3-{4-[2-(2,6-dioxopiperidin-3-yl)-1,3-dioxo-2,3-dihydro-1H-isoindol-5-yl]-3,3-difluoropiperidin-1-yl}cyclobutoxy]piperidin-1-yl}pyrimidin-4-yl)amino]-2-oxo-1-(propan-2-yl)-1,2-dihydroquinolin-3-yl}oxy)-N-methylacetamide] | ≥ 100 | ≥ 70
CNC(=O)COc1cc2cc(Nc3nc(N4CCC(CN5CCC6(CCN(c7cc(F)cc8c7C(=O)N(C7CCC(=O)NC7=O)C8=O)C6)C5)CC4)ncc3Cl)ccc2n(C(C)C)c1=O (centres unmarked) [Compound 138, 2-{[6-({5-chloro-2-[4-({7-[2-(2,6-dioxopiperidin-3-yl)-6-fluoro-1,3-dioxo-2,3-dihydro-1H-isoindol-4-yl]-2,7-diazaspiro[4.4]nonan-2-yl}methyl)piperidin-1-yl]pyrimidin-4-yl}amino)-2-oxo-1-(propan-2-yl)-1,2-dihydroquinolin-3-yl]oxy}-N-methylacetamide] | < 10 | 50 to 70
CNC(=O)COc1cc2cc(Nc3nc(N4CCC(CN5CCC6(CCN(c7c(F)ccc8c7C(=O)N(C7CCC(=O)NC7=O)C8=O)C6)C5)CC4)ncc3Cl)ccc2n(C(C)C)c1=O (centres unmarked) [Compound 139, 2-{[6-({5-chloro-2-[4-({7-[2-(2,6-dioxopiperidin-3-yl)-5-fluoro-1,3-dioxo-2,3-dihydro-1H-isoindol-4-yl]-2,7-diazaspiro[4.4]nonan-2-yl}methyl)piperidin-1-yl]pyrimidin-4-yl}amino)-2-oxo-1-(propan-2-yl)-1,2-dihydroquinolin-3-yl]oxy}-N-methylacetamide] | < 10 | 50 to 70
CCn1c(=O)c(OCC(=O)NC)cc2cc(Nc3nc(N4CCC(O[C@H]5C[C@H](N6CCC(c7cccc8c7C(=O)N(C7CCC(=O)NC7=O)C8=O)CC6)C5)CC4)ncc3Cl)ccc21 (some centres unmarked) [Compound 140, 2-({6-[(5-chloro-2-{4-[(1r,3r)-3-{4-[2-(2,6-dioxopiperidin-3-yl)-1,3-dioxo-2,3-dihydro-1H-isoindol-4-yl]piperidin-1-yl}cyclobutoxy]piperidin-1-yl}pyrimidin-4-yl)amino]-1-ethyl-2-oxo-1,2-dihydroquinolin-3-yl}oxy)-N-methylacetamide] | 50 to 100 | ≥ 70
